Earlier results in paper PMC10615786 (Cell, 2023).

What was measured:
LRX4 = conditions: modulates salt tolerance
LRX3 = conditions: modulates salt tolerance
ROS level = conditions: general statement, no data or reference printed

In the case of “sRALF23: stigma-expressing RALF peptide (ATRRYISYGALRRNTIPCSRRGASYYNCRRGAQANPYSRGCSAITRCRRS; UniProt Q9LUS7 89-138, looked up)”, the “binding to LRX4” value (LRX4) is given as “bind to LRX3 and LRX4” and the “binding to LRX3” value (LRX3) is given as “bind to LRX3 and LRX4”.
In the case of c1ccc2c(c1)[I+]c1ccccc1-2 [DPI], the “ROS levels in vivo” value (ROS level) is given as “lower ROS levels in vivo”.
